Patent US20200223848A1, “DEGRADATION AGENT USING AUTOPHAGIC MECHANISM OF DAMAGED MITOCHONDRIA” (TOHOKU UNIVERSITY, priority 2017, published 2020)

What was measured:
Format in all cases: cell-based
Detroit532 cells = assay: JC-1 staining of mitochondrial membrane potential; conditions: Down syndrome patient foreskin-derived fibroblasts; 10 μM, incubation for 3 days
Experimental: Detroit532 cells, which were Down syndrome patient foreskin-derived fibroblasts, were cultured in Eagle's Minimum Essential Medium. The cells were divided into two groups. A compound (Indole-FBn) was added to an experimental group at a final concentration of 10 μM, and was not added to a control group, followed by incubation for 3 days (37° C., 5% CO2). The cells of each group were each stained with JC-1 (abcam, 113850).
The JC-1 dye accumulates in mitochondria having a normal membrane potential to emit red fluorescence. Meanwhile, its localization is lost from mitochondria having an abnormal membrane potential and green fluorescence is emitted. That is, in a JC-1 staining image, a lower “green/red fluorescence intensity ratio” means that the membrane potential of mitochondria is kept more normal. Staining images were analyzed with ImageJ (National Institute of Health), and the “green/red fluorescence intensity ratio” is shown as a graph. Error bars represent standard deviations obtained from data from three independent experiments.

[1] = tested on: HeLa cells stably expressing EmGFP-HaloTag-Omp25; assay: Living cell imaging of degradation of injured mitochondria (EmGFP-HaloTag-Omp25 green and MitoTracker Red CMXRos red fluorescence)
Experimental: HeLa cells cultured in Dulbecco's Modified Eagle Medium (DMEM) were transfected with the plasmid pEmGFP-HaloTag-Omp25 containing a gene sequence encoding the EmGFP-HaloTag-Omp25 fusion protein localized on the mitochondrial outer membrane, and were allowed to stably express the protein. As a result, mitochondria in the cells were able to be observed using green fluorescence as an indicator.
A red fluorescent dye MitoTracker Red CMXRos (Thermo Fisher Scientific, M7513) was added thereto, followed by incubation for 30 minutes to stain mitochondria. At this stage, the mitochondria in the cells had been stained in two colors by EmGFP-HaloTag-Omp25 and MitoTracker Red CMXRos. Subsequently, MitoTracker Red CMXRos in the medium was removed by medium exchange. Mitochondria to be biosynthesized after this operation can only be detected with green fluorescence, and are not to be detected with red fluorescence. This difference was utilized to observe the degradation process of mitochondria by living cell imaging.
The cells were divided into two groups. Indole-FBn was added to an experimental group at a final concentration of […] was not added to a control group. In order to observe living cells at a fixed point for a long period of time, a culture vessel was fixed to a stage-top incubator (37° C., 5% CO2) mounted on a fluorescence microscope (KEYENCE, BX9000), and all the subsequent operations were performed on the microscope. […]
The signals of EmGFP-HaloTag-Omp25 and MitoTracker Red CMXRos at the time of the addition of Indole-FBn (−10 h), the time of the addition of CCCP (0 h), 2 hours after the addition of CCCP (+2 h), […] after the addition of CCCP (+8 h), and 16 hours after the addition of CCCP (+16 h) are shown in FIG. 6 and FIG. 7. In the graphs, the intensities of the signals of EmGFP-HaloTag-Omp25 (green fluorescence) and MitoTracker Red CMXRos (red fluorescence) in the photographs shown in FIG. 6 are shown as relative values with the respective intensities at −10 h being defined as 1. […]

HeLa cells = assay: Cytoprotective effect against mitochondrial injury induced by uncoupler CCCP (Hoechst33342 nuclear staining, DNA fragmentation, cell viability)
Text: Assessment Method for Cytoprotective Effect of Compound of Example 3, (R)-2-Acetylamino-3-[2-amino-9-(4-fluoro-benzyl)-6-oxo-6,9-dihydro-1H-purin-8-ylsulfanyl]-N-{3-[2-(2-{3-[2-oxo-2-(2-phenyl-1H-indol-3-yl)-acetylamino]-propoxy}-ethoxy)-ethoxy]-propyl}-propionamide (Indole-FBn), Against Mitochondrial Injury, and Confirmation of Inhibition of Cytoprotective Effect with Autophagy Inhibitor (Bafilomycin A1: Baf A1)
Cell Viability under Condition of Treating Cells with Indole-FBn and CCCP (Test Group):
HeLa cells seeded in Dulbecco's Modified Eagle Medium (DMEM) in a 96-well plate at 30,000 cells/well were incubated under the conditions of 37° C./5% CO2 overnight. […]
Subsequently, the uncoupler CCCP was added at a final concentration of 10 μM, followed by further incubation for 2 hours to induce mitochondrial injury. Cells in each of which DNA fragmentation was found in the nucleus were judged to be dead cells, and cell viability was calculated by the following equation. […]
HeLa cells seeded in Dulbecco's Modified Eagle Medium (DMEM) in a 96-well plate at 30,000 cells/well were incubated under the conditions of 37° C./5% CO2 for 1 day, and then subjected to nuclear staining by Hoechst33342 staining. […] Cells in each of which DNA fragmentation was found in the nucleus were judged to be dead cells, and cell viability was calculated. […]

CC(=O)N[C@@H](CSc1nc2c(=O)[nH]c(N)nc2n1Cc1ccc(F)cc1)C(=O)NCCCOCCOCCOCCCNC(=O)C(=O)c1c(-c2ccccc2)[nH]c2ccccc12 [Indole-FBn, (R)-2-Acetylamino-3-[2-amino-9-(4-fluoro-benzyl)-6-oxo-6,9-dihydro-1H-purin-8-ylsulfanyl]-N-{3-[2-(2-{3-[2-oxo-2-(2-phenyl-1H-indol-3-yl)-acetylamino]-propoxy}-ethoxy)-ethoxy]-propyl}-propionamide]
quality of mitochondria (JC-1 green/red fluorescence intensity ratio, membrane potential) (Detroit532 cells): significantly improved
green and red signal intensities after the addition of CCCP ([1]; Indole-FBn-treated group, 2 h, 8 h after CCCP, relative to intensities at -10 h defined as 1): reduced
removal of injured mitochondria and production of new mitochondria ([1]; living cell imaging experiment, overall conclusion): promoted both the removal of injured mitochondria and the production of new mitochondria
green fluorescence intensity, comparison of 8 hours and 16 hours after the addition of CCCP ([1]; only in the Indole-FBn-treated group, indicates production of new mitochondria): increased
cytoprotective effect under the CCCP-treated condition in coexistence of autophagy inhibitor Baf A1 (HeLa cells; Baf A1 200 nM added 2 hours before Indole-FBn treatment, CCCP 10 μM): significantly inhibited
cell death due to mitochondrial injury (cell viability) (HeLa cells; Indole-FBn 1 μM for 10 hours, then CCCP 10 μM for 2 hours, versus non-Indole-FBn-treated control): significantly suppressed cell death
